Reference: patent publication US20110294842A9, “SPIRO (FURO [3, 2-C] PYRIDINE-3-3' -INDOL) -2' (1'H)-ONE DERIVATIVES AND RELATED COMPOUNDS FOR THE TREATMENT OF SODIUM-CHANNEL MEDIATED DISEASES, SUCH AS PAIN” (Xenon Pharmaceuticals Inc., priority 2006, published 2011)

What was measured:
sodium channel = experiment: Guanidine influx assay (in vitro); format: cell-based, human or rat; conditions: known cell line that expresses a sodium channel; read-out: IC50 Activity Level
Source text: This example describes an in vitro assay for testing and profiling test agents against human or rat sodium channels stably expressed in cells of either an endogenous or recombinant origin. The assay is also useful for determining the IC-50 of a sodium channel blocking compound. The assay is based on the guanidine flux assay described by Reddy, N. L., et al., J Med Chem (1998), 41(17):3298-302.
The guanidine influx assay is a radiotracer flux assay used to determine ion flux activity of sodium channels in a high-throughput microplate-based format. The assay uses ^14C-guanidine hydrochloride in combination with various known sodium channel modulators, to assay the potency of test agents. Potency is determined by an IC-50 calculation. Selectivity is determined by comparing potency of the compound for the channel of interest to its potency against other sodium channels (also called ‘selectivity profiling’).
Each of the test agents is assayed against cells that express the channels of interest. Voltage gated sodium channels are either TTX sensitive or insensitive. This property is useful when evaluating the activities of a channel of interest when it resides in a mixed population with other sodium channels. The following Table 1 summarizes cell lines useful in screening for a certain channel activity in the presence or absence of TTX.
Cells expressing the channel of interest are grown according to the supplier or in the case of a recombinant cell in the presence of selective growth media such as G418 (Gibco/Invitrogen). The cells are disassociated from the culture dishes with an enzymatic solution (1×) Trypsin/EDTA (Gibco/Invitrogen) and analyzed for density and viability using haemocytometer (Neubauer). Disassociated cells are washed and resuspended in their culture media then plated into Scintiplates (Beckman Coulter Inc.) (approximately 100,000 cells/well) and incubated at 37° C./5% CO2 for 20-24 hours. After an extensive wash with Low sodium HEPES-buffered saline solution (LNHBSS) (150 mM Choline Chloride, […] (Sigma), 1 mM Calcium Chloride, 5 mM Potassium Chloride, 1 mM Magnesium Chloride, 10 mM Glucose) agents diluted with LNHBSS are added to each well. (Varying concentrations of test agent may be used). The activation/radiolabel mixture contains aconitine (Sigma), and ^14C-guanidine hydrochloride (ARC).
After loading the cells with test agent and activation/radiolabel mixture, the Scintiplates are incubated at ambient temperature. Following the incubation, the Scintplates are extensively washed with LNHBSS supplemented with guanidine (Sigma). The Scintiplates are dried and then counted using a Wallac MicroBeta TriLux (Perkin-Elmer Life Sciences). The ability of the test agent to block sodium channel activity is determined by comparing the amount of ^14C-guanidine present inside the cells expressing the different sodium channels.
IC-50 value of a test agent for a specific sodium channel may be determined using the above general method. IC-50 may be determined using a 3, 8, 10, 12 or 16 point curve in duplicate or triplicate with a starting concentration of 1, 5 or 10 μM diluted serially with a final concentration reaching the sub-nanomolar, nanomolar and low micromolar ranges. Typically the mid-point concentration of test agent is set at 1 μM, and sequential concentrations of half dilutions greater or smaller are applied (e.g. 0.5 μM; 5 μM and 0.25 μM; 10 μM and 0.125 μM; 20 μM etc.). The IC-50 curve is calculated using the 4 Parameter Logistic Model or Sigmoidal Dose-Response Model formula (fit=(A+((B−A)/(1+((C/×)̂ D)))).
The Synthetic Example numbers provided in Table 2 correspond to the Synthetic Examples herein: […]

L6 (Nav1.4 and 1.5) = format: cell-based, rat
SK-N-BE2C (NaV1.8) = SK-N-BE2C (NaV1.8) (Homo sapiens, UniProt Q9Y5Y9); format: cell-based
Sequence of SK-N-BE2C (NaV1.8) (Q9Y5Y9 whole entry, looked up): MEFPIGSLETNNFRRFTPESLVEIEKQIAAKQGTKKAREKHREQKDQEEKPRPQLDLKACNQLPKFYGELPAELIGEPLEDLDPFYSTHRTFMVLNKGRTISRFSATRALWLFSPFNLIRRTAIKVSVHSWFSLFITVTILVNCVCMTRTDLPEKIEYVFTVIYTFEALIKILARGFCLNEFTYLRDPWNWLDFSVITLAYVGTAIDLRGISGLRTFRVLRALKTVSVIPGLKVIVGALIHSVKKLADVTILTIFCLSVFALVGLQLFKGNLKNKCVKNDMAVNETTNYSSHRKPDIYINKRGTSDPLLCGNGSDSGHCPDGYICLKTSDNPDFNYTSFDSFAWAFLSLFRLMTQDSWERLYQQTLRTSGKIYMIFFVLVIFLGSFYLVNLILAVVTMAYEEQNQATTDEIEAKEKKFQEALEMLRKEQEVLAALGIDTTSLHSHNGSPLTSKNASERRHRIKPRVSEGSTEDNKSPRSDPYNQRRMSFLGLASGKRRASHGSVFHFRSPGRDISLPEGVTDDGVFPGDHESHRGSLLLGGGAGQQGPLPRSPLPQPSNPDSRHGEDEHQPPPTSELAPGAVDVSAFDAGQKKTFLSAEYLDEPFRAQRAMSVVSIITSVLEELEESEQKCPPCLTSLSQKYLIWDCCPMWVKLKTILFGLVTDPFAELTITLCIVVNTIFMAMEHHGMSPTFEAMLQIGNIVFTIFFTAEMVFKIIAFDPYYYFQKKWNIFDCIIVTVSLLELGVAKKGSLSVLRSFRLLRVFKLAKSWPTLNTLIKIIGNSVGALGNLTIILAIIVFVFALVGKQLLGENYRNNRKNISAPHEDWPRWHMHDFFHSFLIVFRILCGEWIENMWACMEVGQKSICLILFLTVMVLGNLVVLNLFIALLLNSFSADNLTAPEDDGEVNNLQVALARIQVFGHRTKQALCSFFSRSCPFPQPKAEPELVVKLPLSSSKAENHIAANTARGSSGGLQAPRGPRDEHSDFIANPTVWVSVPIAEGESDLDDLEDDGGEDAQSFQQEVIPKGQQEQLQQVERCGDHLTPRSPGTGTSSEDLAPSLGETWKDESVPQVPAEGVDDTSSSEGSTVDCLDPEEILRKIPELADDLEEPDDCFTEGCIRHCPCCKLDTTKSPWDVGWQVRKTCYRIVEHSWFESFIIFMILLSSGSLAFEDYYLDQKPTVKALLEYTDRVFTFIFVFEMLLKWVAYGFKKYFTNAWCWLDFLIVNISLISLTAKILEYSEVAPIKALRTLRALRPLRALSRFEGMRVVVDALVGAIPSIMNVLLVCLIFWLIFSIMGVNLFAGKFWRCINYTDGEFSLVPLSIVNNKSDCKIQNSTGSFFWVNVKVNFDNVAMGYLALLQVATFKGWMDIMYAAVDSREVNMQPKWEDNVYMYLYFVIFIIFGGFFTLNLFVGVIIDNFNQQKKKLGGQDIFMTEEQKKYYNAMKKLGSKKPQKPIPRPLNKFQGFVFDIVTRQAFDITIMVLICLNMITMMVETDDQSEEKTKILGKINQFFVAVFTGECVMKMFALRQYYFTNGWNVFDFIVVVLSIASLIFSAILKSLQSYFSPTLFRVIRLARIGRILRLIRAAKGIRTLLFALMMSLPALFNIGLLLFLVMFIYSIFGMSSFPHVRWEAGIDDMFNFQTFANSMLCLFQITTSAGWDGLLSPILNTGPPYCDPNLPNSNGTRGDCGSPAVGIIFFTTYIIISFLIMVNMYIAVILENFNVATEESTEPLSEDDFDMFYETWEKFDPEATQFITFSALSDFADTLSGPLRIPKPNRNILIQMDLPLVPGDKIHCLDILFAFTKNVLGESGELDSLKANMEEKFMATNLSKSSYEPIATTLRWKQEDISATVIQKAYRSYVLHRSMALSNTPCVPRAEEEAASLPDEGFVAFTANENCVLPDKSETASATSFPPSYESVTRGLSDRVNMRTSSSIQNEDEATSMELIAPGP

CHO-K1 (Nav1.4) = format: cell-based, Chinese Hamster
PC12 (Nav1.2) = PC12 (Nav1.2) (Rattus norvegicus, UniProt P04775)
Sequence of PC12 (Nav1.2) (P04775 whole entry, looked up): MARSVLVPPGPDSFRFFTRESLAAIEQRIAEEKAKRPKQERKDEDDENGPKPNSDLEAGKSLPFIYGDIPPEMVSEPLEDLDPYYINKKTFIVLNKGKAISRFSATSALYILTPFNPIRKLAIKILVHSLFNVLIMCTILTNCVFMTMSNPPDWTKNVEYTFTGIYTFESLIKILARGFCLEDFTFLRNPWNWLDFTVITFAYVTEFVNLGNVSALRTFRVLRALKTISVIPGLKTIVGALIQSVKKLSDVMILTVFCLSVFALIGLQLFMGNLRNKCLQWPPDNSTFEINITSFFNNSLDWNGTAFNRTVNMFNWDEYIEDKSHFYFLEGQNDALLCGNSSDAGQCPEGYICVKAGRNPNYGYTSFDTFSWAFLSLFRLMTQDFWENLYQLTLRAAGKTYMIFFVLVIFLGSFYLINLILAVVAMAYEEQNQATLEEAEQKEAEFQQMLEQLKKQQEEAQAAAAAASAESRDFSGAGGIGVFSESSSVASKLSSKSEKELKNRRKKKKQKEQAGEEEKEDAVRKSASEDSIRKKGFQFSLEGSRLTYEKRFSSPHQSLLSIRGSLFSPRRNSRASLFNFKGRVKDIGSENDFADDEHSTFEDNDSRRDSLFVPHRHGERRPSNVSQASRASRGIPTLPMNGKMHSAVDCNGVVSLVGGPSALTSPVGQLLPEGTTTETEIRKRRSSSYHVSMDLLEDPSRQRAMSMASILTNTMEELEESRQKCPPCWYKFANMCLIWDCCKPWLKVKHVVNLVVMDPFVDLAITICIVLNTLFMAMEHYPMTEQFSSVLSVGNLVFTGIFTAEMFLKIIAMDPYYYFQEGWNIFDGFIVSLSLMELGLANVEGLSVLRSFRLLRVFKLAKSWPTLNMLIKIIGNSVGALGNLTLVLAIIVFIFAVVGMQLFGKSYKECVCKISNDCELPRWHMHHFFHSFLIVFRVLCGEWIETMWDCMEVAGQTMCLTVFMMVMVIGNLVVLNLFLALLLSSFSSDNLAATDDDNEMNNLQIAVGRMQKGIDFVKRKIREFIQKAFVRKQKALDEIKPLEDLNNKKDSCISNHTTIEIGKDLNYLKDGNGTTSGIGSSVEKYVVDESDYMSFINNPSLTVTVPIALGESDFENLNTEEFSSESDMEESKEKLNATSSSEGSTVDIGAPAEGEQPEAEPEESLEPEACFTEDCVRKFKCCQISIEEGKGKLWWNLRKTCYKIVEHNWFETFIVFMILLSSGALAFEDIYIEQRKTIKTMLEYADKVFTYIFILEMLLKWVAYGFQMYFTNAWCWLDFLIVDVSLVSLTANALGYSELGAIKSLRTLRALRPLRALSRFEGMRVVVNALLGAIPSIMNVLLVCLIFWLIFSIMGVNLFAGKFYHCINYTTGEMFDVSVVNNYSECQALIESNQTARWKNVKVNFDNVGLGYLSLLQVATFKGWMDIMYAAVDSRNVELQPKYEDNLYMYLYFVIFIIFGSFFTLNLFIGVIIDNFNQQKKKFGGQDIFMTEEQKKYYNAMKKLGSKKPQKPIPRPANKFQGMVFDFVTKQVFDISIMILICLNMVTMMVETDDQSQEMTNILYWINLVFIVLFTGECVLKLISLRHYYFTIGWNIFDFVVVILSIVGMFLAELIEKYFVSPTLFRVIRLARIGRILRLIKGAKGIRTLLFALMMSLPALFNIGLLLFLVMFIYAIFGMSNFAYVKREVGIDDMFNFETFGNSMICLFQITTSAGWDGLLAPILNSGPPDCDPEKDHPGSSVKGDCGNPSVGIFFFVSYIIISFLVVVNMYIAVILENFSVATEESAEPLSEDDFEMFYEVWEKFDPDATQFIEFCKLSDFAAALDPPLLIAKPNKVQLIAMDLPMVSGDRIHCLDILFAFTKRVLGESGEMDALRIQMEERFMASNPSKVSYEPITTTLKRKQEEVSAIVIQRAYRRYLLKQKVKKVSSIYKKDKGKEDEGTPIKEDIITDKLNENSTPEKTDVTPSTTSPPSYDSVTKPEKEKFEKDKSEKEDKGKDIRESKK

`COc1ccc2c(n1)C1(CO2)C(=O)Nc2ccccc21` (stereo not shown) [Example 13] showed a melting point of 199 to 200 °C and an IC50 (sodium channel) of no less than 1000 nM.

In the case of `COc1cc2c(cn1)OCC21C(=O)N(Cc2ccc(C(F)(F)F)o2)c2ccccc21` (stereo not shown) [Example 23], the IC50 (sodium channel) is reported as 1 to 10 nM.

In the case of `COc1ccc2c(n1)C1(CO2)C(=O)N(Cc2ccc(C(F)(F)F)o2)c2ccccc21` (stereo not shown) [Synthetic Example 5, 5-methoxy-1′-{[5-(trifluoromethyl)-2-furyl]methyl}spiro[furo[3,2-b]pyridine-3,3′-indol]-2′(1′H)-one], the melting point is reported as 145 to 147 °C.

`COc1ccc2c(n1)C1(CO2)C(=O)N(CC(=O)Nc2ccccc2F)c2ccccc21` (stereo not shown) [Example 18] showed an IC50 (sodium channel) of 100 to 1000 nM.

Work on `COc1ccc2c(n1)C1(CO2)C(=O)N(Cc2ccc(Cl)s2)c2ccccc21` (stereo not shown) [Example 15] yielded an IC50 (sodium channel) of 10 to 100 nM.

In the case of `COc1ccc2c(n1)C1(CO2)C(=O)Nc2cccc(Br)c21` (stereo not shown) [Synthetic Example 12, 4′-bromo-5-methoxyspiro[furo[3,2-b]pyridine-3,3′-indol]-2′(1′H)-one], the melting point is reported as 265 to 268 °C.

Work on `COc1ccc2c(n1)C1(CO2)C(=O)Nc2cccc(Br)c21` (stereo not shown) [Example 12] yielded an IC50 (sodium channel) of 100 to 1000 nM.

In the case of `CCCCCN1C(=O)C2(COc3ccncc32)c2ccccc21` (stereo not shown) [Example 2], the IC50 (sodium channel) is reported as no less than 1000 nM.

With `O=C1N(Cc2ccc(C(F)(F)F)o2)c2ccccc2C12COc1cc3c(nc12)OCO3` (stereo not shown) [Example 8] the IC50 (sodium channel) was 1 to 10 nM.

For `CCCCCN1C(=O)C2(COc3cc[nH]c(=O)c32)c2ccccc21` (stereo not shown) [Example 3], the IC50 (sodium channel) was no less than 1000 nM.

In the case of `COc1cc2c(cn1)OCC21C(=O)N(CC2CCOCC2)c2ccccc21` (stereo not shown) [Synthetic Example 26, 5-methoxy-1′-(tetrahydro-2H-pyran-4-ylmethyl)spiro[furo[2,3-c]pyridine-3,3′-indol]-2′(1′H)-one], the melting point is reported as 84 to 85 °C.

Work on `COc1ccc2c(n1)C1(CO2)C(=O)N(CC2CCN(C)CC2)c2ccccc21` (stereo not shown) [Example 22] yielded a melting point of 58 to 62 °C and an IC50 (sodium channel) of no less than 1000 nM.

Work on `COc1ccc2c(n1)C1(CO2)C(=O)N(Cc2ccc(C(F)(F)F)o2)c2ccc(F)cc21` (stereo not shown) [Example 10] yielded an IC50 (sodium channel) of no less than 1000 nM.

Work on `COc1cc2c(cn1)OCC21C(=O)N(CC2CCOCC2)c2ccccc21` (stereo not shown) [Example 26] yielded an IC50 (sodium channel) of 100 to 1000 nM.

`COc1cc2c(cn1)OCC21C(=O)N(C[C@@H]2CCCO2)c2ccccc21` (stereo partly shown) [Example 27] gave an IC50 (sodium channel) of 10 to 100 nM.

`COc1cc2c(cn1)OCC21C(=O)Nc2ccccc21` (stereo not shown) [Synthetic Example 25, 5-methoxyspiro[furo[2,3-c]pyridine-3,3′-indol]-2′(1′H)-one] gave a melting point of 231 to 232 °C.

For `COc1ccc2c(n1)C1(CO2)C(=O)N(Cc2ncc(Cl)n2C)c2ccccc21` (stereo not shown) [Example 19], the melting point was 169 to 171 °C and the IC50 (sodium channel) was 100 to 1000 nM.

In the case of `COc1cc2c(cn1)OCC21C(=O)N(C(c2ccccc2)c2ccccc2)c2ccccc21` (stereo not shown) [Example 24], the IC50 (sodium channel) is reported as no less than 1000 nM.

Molecule `COc1ccc2c(n1)C1(CO2)C(=O)N(Cc2ccc(C(F)(F)F)o2)c2ccccc21` (stereo not shown) [Example 5] has an IC50 (sodium channel) of 100 to 1000 nM.

`CCCCCN1C(=O)C2(COc3ccncc32)c2ccccc21` (stereo not shown) [Example 1] gave an IC50 (sodium channel) of 100 to 1000 nM.

In the case of `NC1=N[C@H](O)[C@H]2[C@H]3O[C@]4(O)O[C@@H]([C@@H](O)[C@@]2(N1)[C@@H]4O)[C@]3(O)CO` [TTX, tetrodotoxin], the “block of [14C] guanidine influx” value (L6 (Nav1.4 and 1.5)) is reported as “partially blocked by TTX (Nav1.5”, the “block of [14C] guanidine influx” value (SK-N-BE2C (NaV1.8)) is reported as “TTX partially blocked influx” and the “block of [14C] guanidine influx” value (CHO-K1 (Nav1.4)) is reported as “Guanidine influx was completely”. The “block of [14C] guanidine influx” value (PC12 (Nav1.2)) was “Guanidine influx was completely”.

Work on `COc1ccc2c(n1)C1(CO2)C(=O)N(Cc2ccc(C(F)(F)F)o2)c2cccc(Cl)c21` (stereo not shown) [Example 11] yielded an IC50 (sodium channel) of 100 to 1000 nM.

Molecule `COc1ccc2c(n1)C1(CO2)C(=O)N(Cc2ccccn2)c2ccccc21` (stereo not shown) [Example 17] has an IC50 (sodium channel) of 100 to 1000 nM.

In the case of `O=C1N(Cc2ccc(C(F)(F)F)o2)c2ccccc2C12COc1ccc(=O)[nH]c12` (stereo not shown) [Synthetic Example 7, 1′-{[5-(trifluoromethyl)-2-furyl]methyl}spiro[furo[3,2-b]pyridine-3,3′-indole]-2′,5(1′H,4H)-dione], the melting point is reported as 175 to 177 °C.

For `COc1ccc2c(n1)C1(CO2)C(=O)N(Cc2csc(C(C)C)n2)c2ccccc21` (stereo not shown) [Example 16], the melting point was 136 to 138 °C and the IC50 (sodium channel) was 10 to 100 nM.

For `COc1cc2c(cn1)OCC21C(=O)Nc2ccccc21` (stereo not shown) [Example 25], the IC50 (sodium channel) was 100 to 1000 nM.

With `COc1cc2c(cn1)OCC21C(=O)N(C[C@H]2CCCO2)c2ccccc21` (stereo partly shown) [Example 28] the IC50 (sodium channel) was 10 to 100 nM.

With `O=C1N(Cc2ccc(C(F)(F)F)o2)c2ccccc2C12COc1cc3c(nc12)OCO3` (stereo not shown) [Synthetic Example 8, 1′-{[5-(trifluoromethyl)-2-furyl]methyl}spiro[1,3-dioxolo[4,5-b]furo[2,3-e]pyridine-5,3′-indol]-2′(1′H)-one] the melting point was 175 to 177 °C.

Molecule `COc1ccc2c(n1)C1(CO2)C(=O)N(Cc2ccc(C(F)(F)F)o2)c2ccc(F)cc21` (stereo not shown) [Synthetic Example 10, 5′-fluoro-5-methoxy-1′-{[5-(trifluoromethyl)-2-furyl]methyl}spiro[furo[3,2-b]pyridine-3,3′-indol]-2′(1′H)-one] has a melting point of 158 to 160 °C.

For `COc1ccc2c(n1)C1(CO2)C(=O)N(Cc2ccc(C(F)(F)F)o2)c2cccc(Br)c21` (stereo not shown) [Example 4], the IC50 (sodium channel) was 10 to 100 nM.
